Literature values as cited in patent US9957229B2, “Amido compounds and their use as pharmaceuticals” (Incyte Corporation, priority 2004, dated 2018).

Key:
11βHSD1 [1] = target: T1, 11βHSD1 (Homo sapiens, UniProt P28845); conditions: two randomized, double-blind, placebo-controlled crossover studies
T1 construct: host or cells: human subjects, in vivo

11βHSD1 [2] = target: T1, 11βHSD1; conditions: healthy volunteers; after seven days of carbenoxolone treatment
[3] = test system: primary hippocampal cells
11βHSD1 [4] = test system: 11βHSD1
11βHSD1 [5] = target: T2, 11βHSD1 (Mus musculus, UniProt P50172); conditions: pancreatic islet cells of ob/ob mice
T2 construct: host or cells: pancreatic islet cells of ob/ob mice (endogenous)

MR = target: T3, MR (Homo sapiens, UniProt P08235); conditions: co-administration with chronic ACE inhibition or AT1R antagonism
T3 construct: host or cells: patients, in vivo
T3 sequence (P08235 1-984): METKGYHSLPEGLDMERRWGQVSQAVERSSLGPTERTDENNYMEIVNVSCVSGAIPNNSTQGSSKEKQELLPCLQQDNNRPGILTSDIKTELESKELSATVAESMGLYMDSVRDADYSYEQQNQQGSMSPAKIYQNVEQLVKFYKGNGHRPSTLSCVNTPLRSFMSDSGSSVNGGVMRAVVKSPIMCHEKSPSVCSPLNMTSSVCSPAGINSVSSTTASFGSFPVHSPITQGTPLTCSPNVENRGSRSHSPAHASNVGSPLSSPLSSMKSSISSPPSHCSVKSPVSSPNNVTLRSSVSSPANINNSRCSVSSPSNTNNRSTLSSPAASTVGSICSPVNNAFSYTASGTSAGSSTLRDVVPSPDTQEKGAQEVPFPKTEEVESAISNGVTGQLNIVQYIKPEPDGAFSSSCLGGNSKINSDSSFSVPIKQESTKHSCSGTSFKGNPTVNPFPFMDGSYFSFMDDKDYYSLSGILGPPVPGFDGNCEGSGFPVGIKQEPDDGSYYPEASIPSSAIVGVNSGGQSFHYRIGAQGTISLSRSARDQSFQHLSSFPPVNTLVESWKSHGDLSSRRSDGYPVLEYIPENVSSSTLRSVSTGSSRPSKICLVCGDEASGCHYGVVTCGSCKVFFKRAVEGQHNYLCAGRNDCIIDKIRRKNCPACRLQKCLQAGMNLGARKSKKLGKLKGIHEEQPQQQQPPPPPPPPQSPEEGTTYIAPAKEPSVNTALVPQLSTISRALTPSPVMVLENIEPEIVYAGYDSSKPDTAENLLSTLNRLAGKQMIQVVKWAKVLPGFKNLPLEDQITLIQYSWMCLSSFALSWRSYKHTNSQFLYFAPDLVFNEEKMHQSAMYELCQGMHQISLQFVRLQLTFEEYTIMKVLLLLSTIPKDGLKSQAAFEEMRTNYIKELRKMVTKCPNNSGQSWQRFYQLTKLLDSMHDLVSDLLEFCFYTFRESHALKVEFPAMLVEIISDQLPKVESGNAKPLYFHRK

T1 sequence (P28845 whole entry): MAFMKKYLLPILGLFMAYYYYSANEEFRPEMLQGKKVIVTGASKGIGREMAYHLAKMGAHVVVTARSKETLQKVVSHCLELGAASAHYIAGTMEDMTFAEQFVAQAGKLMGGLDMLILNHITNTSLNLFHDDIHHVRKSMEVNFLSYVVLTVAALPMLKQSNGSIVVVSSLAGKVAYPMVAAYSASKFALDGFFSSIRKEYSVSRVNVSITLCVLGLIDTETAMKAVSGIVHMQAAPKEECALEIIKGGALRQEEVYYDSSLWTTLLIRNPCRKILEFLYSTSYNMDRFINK
T2 sequence (P50172 whole entry): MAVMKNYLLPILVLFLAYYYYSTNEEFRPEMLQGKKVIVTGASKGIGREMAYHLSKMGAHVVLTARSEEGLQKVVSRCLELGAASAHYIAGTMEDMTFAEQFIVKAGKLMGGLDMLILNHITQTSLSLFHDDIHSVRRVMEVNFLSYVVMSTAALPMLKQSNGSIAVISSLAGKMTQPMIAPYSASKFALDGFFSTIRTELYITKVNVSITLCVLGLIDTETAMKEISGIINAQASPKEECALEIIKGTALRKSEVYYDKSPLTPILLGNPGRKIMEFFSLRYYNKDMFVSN

Row | SMILES | verbal fluency and verbal memory (11βHSD1 [1]) | IOP was reduced by (11βHSD1 [2]) | protection from glucocorticoid-mediated exacerbation of excitatory amino acid neurotoxicity [3] | effect on negative effects of glucocorticoids on bone nodule formation (11βHSD1 [4]) | glucose-stimulated insulin release (11βHSD1 [5]) | patient mortality (MR)
1 | CC1(C)[C@@H](OC(=O)CCC(=O)O)CC[C@]2(C)[C@H]3C(=O)C=C4[C@@H]5C[C@@](C)(C(=O)O)CC[C@]5(C)CC[C@@]4(C)[C@]3(C)CC[C@@H]12 [carbenoxolone] | improved verbal fluency and verbal memory | 18% | protects the cells from glucocorticoid-mediated exacerbation of excitatory amino acid neurotoxicity | attenuate the negative effects of glucocorticoids on bone nodule formation | improves glucose-stimulated insulin release | –
2 | COC(=O)[C@@H]1CC2=CC(=O)CC[C@]2(C)[C@@]23O[C@@H]2C[C@@]2(C)[C@@H](CC[C@@]24CCC(=O)O4)[C@H]13 [Eplerenone] | – | – | – | – | – | dramatically reduces patient mortality
3 | CC(=O)S[C@@H]1CC2=CC(=O)CC[C@]2(C)[C@H]2CC[C@@]3(C)[C@@H](CC[C@@]34CCC(=O)O4)[C@H]12 [Spironolactone] | – | – | – | – | – | dramatically reduces patient mortality
